Measured values published in patent publication US9382258B2, “Agents for treating pain and uses thereof” (AbbVie Inc., priority 2012, dated 2016).

Target: T1, human Cav2.2 (Homo sapiens, UniProt Q00975)
T1 construct: cells endogenously expressing human Cav2.2; endogenous in cells; host or cells: IMR32 cells
Assay: Calcium flux (FLIPR, Calcium 4 dye) in IMR32 cells endogenously expressing human Cav2.2
Assay type: cell-based
Details: 60 minute pre-incubation, 2 μM nifedipine to block L-type channels, depolarized with 80 mM KCl, 5 mM CaCl2, average of n≥2 runs unless marked *
Method: Compounds were tested for effect on calcium flux in cells endogenously expressing human Cav2.2. Specifically, IMR32 cells endogenously expressing human Cav2.2 were assayed for Ca^2+ influx using a no-wash calcium indicator dye (Calcium 4 dye: Molecular Probes) and FLIPR technology (Lubin, M L; et al. Assay and Drug Development Technologies, 2006, 4(6), 689-694). The IMR32 cells were maintained in MEM media containing 10% (v/v) FBS, 1% (v/v) antibiotic/antimitotic, 1% (v/v) sodium pyruvate and 1% (v/v) MEM NEAA. Following dissociation in 0.05% (v/v) trypsin/EDTA, cells were seeded into black 1×96-well plates (Corning Cellbind) at a density of 1−1.2×10^5 cells/well and incubated in the maintenance media above for 48 hours at 37° C. Immediately prior to performing the assay the media was removed and cells were loaded for 1.5 hours with 1× Calcium 4 dye prepared in HBSS (137 mM NaCl, 5.4 mM KCl, 0.25 mM Na2HPO4, 0.44 mM KH2PO4, 1.3 mM CaCl2, 1 mM MgSO4, 4.2 mM NaHCO3) containing HEPES pH 7.4 at room temperature. After dye loading and a subsequent 60 minute pre-incubation with compounds (full log dilutions from 10 μM to 0.1 nM) in the presence of 1.3 mM CaCl2 and 2 μM nifedipine to block endogenous L-type channels, the external Ca^2+ concentration was increased to 5 mM CaCl2 and the cells concomitantly depolarized with 80 mM KCl to assay channel activity.
To determine the IC50 values, the percent inhibition of the compound at each concentration was determined relative to the activity in the absence of inhibitor, and data was fitted using non-linear regression sigmoidal dose response curve analysis with GraphPad Prism®. Unless otherwise indicated (*), the reported values are average values from at least two runs (i.e., n≧2).

T1 sequence (Q00975 whole entry): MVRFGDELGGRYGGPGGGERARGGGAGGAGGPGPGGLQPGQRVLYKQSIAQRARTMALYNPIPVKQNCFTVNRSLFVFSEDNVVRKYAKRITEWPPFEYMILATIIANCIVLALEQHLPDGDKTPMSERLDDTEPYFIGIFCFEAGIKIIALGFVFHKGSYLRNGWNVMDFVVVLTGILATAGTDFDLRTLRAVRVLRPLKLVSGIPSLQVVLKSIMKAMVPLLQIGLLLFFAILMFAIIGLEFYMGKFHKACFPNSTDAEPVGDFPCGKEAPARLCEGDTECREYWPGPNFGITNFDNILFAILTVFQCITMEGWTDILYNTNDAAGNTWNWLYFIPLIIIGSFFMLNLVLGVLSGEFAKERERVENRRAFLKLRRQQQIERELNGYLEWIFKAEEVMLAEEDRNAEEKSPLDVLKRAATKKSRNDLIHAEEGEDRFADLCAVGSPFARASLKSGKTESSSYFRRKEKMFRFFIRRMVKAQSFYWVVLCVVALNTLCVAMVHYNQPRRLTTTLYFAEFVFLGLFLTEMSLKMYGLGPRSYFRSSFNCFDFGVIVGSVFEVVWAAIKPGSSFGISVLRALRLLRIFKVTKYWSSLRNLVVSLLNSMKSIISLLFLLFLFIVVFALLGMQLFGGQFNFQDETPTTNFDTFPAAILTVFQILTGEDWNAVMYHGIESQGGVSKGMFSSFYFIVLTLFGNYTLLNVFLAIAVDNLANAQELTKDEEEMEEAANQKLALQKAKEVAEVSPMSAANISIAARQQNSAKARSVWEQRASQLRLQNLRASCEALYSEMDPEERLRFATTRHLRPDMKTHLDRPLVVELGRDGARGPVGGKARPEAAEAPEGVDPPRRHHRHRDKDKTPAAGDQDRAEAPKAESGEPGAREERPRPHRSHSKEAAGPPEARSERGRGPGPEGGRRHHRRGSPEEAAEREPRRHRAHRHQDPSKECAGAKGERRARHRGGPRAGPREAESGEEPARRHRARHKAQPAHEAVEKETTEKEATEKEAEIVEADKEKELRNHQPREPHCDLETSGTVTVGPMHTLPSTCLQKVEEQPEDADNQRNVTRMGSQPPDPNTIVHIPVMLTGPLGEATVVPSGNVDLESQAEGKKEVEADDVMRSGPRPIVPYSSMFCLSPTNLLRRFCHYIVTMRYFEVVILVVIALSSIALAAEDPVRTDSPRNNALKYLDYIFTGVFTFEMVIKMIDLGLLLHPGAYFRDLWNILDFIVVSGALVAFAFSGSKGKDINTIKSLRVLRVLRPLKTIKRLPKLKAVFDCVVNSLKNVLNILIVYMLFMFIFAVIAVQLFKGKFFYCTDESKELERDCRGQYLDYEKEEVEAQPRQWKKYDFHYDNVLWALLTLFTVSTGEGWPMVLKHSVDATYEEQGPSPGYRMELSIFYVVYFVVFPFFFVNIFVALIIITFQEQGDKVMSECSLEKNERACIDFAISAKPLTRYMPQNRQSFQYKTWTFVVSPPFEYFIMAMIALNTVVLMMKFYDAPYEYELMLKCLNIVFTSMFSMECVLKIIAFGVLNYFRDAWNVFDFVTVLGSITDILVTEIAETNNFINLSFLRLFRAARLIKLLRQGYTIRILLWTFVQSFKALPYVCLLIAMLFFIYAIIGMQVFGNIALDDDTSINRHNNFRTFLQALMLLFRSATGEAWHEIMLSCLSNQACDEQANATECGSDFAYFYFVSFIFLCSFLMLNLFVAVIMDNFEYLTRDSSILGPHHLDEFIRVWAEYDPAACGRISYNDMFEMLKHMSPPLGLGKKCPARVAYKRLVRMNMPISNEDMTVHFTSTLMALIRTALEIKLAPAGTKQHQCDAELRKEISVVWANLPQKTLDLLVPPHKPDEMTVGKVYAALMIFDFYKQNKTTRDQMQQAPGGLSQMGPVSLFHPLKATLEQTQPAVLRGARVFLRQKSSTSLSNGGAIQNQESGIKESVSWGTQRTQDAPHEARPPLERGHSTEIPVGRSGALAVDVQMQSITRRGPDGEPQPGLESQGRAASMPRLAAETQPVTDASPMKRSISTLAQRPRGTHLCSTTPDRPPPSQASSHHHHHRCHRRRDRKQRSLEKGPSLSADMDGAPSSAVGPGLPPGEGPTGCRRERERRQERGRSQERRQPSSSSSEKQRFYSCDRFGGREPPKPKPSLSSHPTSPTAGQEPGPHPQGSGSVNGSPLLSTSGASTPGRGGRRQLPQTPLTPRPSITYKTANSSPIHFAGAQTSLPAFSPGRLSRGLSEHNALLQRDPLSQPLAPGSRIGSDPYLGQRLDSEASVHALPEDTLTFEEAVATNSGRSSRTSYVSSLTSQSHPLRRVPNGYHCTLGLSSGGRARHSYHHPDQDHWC
T1 sequence (P54284 whole entry partner): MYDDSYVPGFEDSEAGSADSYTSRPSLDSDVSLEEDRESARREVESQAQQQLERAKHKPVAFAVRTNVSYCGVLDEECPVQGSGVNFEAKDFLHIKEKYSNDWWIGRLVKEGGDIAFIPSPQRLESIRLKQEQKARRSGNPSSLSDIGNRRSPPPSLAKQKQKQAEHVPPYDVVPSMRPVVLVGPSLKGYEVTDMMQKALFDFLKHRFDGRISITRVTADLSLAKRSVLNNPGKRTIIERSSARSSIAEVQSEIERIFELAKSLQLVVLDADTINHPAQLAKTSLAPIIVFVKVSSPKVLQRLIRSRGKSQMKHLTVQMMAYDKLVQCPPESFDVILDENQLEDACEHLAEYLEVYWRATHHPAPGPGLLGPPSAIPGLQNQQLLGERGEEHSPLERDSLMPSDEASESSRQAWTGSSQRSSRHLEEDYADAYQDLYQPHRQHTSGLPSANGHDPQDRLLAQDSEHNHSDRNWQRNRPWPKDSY
T1 sequence (P54289 25-956 partner limits assumed): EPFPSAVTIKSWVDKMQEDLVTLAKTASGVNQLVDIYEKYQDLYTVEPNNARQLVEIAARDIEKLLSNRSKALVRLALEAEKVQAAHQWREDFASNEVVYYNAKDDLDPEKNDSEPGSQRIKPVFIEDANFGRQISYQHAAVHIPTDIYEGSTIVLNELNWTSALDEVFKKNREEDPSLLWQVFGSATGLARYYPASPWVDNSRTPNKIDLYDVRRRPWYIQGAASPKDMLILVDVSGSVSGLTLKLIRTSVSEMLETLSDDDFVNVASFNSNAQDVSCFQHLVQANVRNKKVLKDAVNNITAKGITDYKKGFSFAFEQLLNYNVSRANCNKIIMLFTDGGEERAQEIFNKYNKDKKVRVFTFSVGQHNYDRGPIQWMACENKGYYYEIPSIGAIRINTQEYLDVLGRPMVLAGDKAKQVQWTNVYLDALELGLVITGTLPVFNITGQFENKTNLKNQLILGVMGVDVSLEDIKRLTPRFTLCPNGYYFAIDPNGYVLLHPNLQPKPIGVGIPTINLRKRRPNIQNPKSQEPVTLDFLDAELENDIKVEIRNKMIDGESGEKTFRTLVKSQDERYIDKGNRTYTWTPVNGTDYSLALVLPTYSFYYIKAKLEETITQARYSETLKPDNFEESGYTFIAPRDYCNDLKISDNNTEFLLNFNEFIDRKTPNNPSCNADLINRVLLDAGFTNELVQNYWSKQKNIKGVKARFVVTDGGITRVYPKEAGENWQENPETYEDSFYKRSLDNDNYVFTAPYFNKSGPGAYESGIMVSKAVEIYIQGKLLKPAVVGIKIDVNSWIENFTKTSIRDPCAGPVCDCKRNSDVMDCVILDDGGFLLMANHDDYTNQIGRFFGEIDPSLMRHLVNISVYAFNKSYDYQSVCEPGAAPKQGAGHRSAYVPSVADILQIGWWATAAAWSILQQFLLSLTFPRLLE
T1 sequence (P54289 957-1103 partner limits assumed): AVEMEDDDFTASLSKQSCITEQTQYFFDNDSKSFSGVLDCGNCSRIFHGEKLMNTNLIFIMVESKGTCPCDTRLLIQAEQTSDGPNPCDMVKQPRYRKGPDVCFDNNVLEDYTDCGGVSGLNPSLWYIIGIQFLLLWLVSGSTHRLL

| Compound | IC50 |
| --- | --- |
| O=C1CCN(S(=O)(=O)c2cccc(C(F)(F)F)c2)C[C@@H]2C[C@@H](Oc3ccc(C(F)(F)F)cn3)CN12 [Example 31, (8R,9aS)-2-{[3-(trifluoromethyl)phenyl]sulfonyl}-8-{[5-(trifluoromethyl)pyridin-2-yl]oxy}octahydro-5H-pyrrolo[1,2-a][1,4]diazepin-5-one] | 0.6 µM |
| O=C1CCN(Cc2cccc(OC(F)(F)F)c2)C[C@@H]2C[C@@H](Oc3cnc(C4CC4)cn3)CN12 [Example 43, (8R,9aS)-8-[(5-cyclopropylpyrazin-2-yl)oxy]-2-[3-(trifluoromethoxy)benzyl]octahydro-5H-pyrrolo[1,2-a][1,4]diazepin-5-one] | 1.11 µM |
| O=C1CCN(Cc2cccc(C(F)(F)F)c2)C[C@@H]2C[C@@H](Oc3ccc(C(F)(F)F)cn3)CN12 [Example 45, (8R,9aS)-2-[3-(trifluoromethyl)benzyl]-8-{[5-(trifluoromethyl)pyridin-2-yl]oxy}octahydro-5H-pyrrolo[1,2-a][1,4]diazepin-5-one] | 0.62 µM |
| O=C1CCN(c2ncc(C(F)(F)F)cc2Cl)C[C@@H]2C[C@@H](Oc3cnc(C4CC4)cn3)CN12 [Example 49, (8R,9aS)-2-[3-chloro-5-(trifluoromethyl)pyridin-2-yl]-8-[(5-cyclopropylpyrazin-2-yl)oxy]octahydro-5H-pyrrolo[1,2-a][1,4]diazepin-5-one] | 2.13 µM |
| O=C1CCN(c2ncc(C(F)(F)F)cc2F)C[C@@H]2C[C@@H](Oc3cnc(C4CC4)cn3)CN12 [Example 50, (8R,9aS)-8-[(5-cyclopropylpyrazin-2-yl)oxy]-2-[3-fluoro-5-(trifluoromethyl)pyridin-2-yl]octahydro-5H-pyrrolo[1,2-a][1,4]diazepin-5-one] | 2.46 µM |
| O=C1CCN(c2cnc(C3CC3)cn2)C[C@@H]2C[C@@H](Oc3ccc(C(F)(F)F)cn3)CN12 [Example 51, (8R,9aS)-2-(5-cyclopropylpyrazin-2-yl)-8-{[5-(trifluoromethyl)pyridin-2-yl]oxy}octahydro-5H-pyrrolo[1,2-a][1,4]diazepin-5-one] | 7.35 µM |
| O=C1CCN(S(=O)(=O)c2ccc(C(F)(F)F)cc2)C[C@@H]2C[C@@H](Oc3ccc(C(F)(F)F)cn3)CN12 [Example 52, (8R,9aS)-2-{[4-(trifluoromethyl)phenyl]sulfonyl}-8-{[5-(trifluoromethyl)pyridin-2-yl]oxy}octahydro-5H-pyrrolo[1,2-a][1,4]diazepin-5-one] | 1.26 µM |
| O=C1CCN(S(=O)(=O)c2cccc(C(F)(F)F)c2)C[C@@H]2C[C@@H](Oc3ccc(C(F)(F)F)nc3)CN12 [Example 53, (8R,9aS)-2-{[3-(trifluoromethyl)phenyl]sulfonyl}-8-{[6-(trifluoromethyl)pyridin-3-yl]oxy}octahydro-5H-pyrrolo[1,2-a][1,4]diazepin-5-one] | 4.02 µM |
| O=C1CCN(S(=O)(=O)c2ccc(C(F)(F)F)cc2)C[C@@H]2C[C@@H](Oc3ccc(C(F)(F)F)nc3)CN12 [Example 54, (8R,9aS)-2-{[4-(trifluoromethyl)phenyl]sulfonyl}-8-{[6-(trifluoromethyl)pyridin-3-yl]oxy}octahydro-5H-pyrrolo[1,2-a][1,4]diazepin-5-one] | 1.29 µM |
| O=C1CCN(Cc2ccc(OC(F)(F)F)cc2)C[C@H]2C[C@@H](Oc3cnc(C4CC4)cn3)CN12 [Example 56, (8R,9aR)-8-[(5-cyclopropylpyrazin-2-yl)oxy]-2-[4-(trifluoromethoxy)benzyl]octahydro-5H-pyrrolo[1,2-a][1,4]diazepin-5-one] | 2.5 µM |
| O=C1CCN(S(=O)(=O)c2ccc(C(F)(F)F)cc2)C[C@H]2C[C@@H](Oc3cnc(C4CC4)cn3)CN12 [Example 58, (8R,9aR)-8-[(5-cyclopropylpyrazin-2-yl)oxy]-2-{[4-(trifluoromethyl)phenyl]sulfonyl}octahydro-5H-pyrrolo[1,2-a][1,4]diazepin-5-one] | 3.75 µM |
| O=C1CCN(Cc2ccc(OC(F)(F)F)cc2)C[C@@H]2C[C@H](Oc3cnc(C4CC4)cn3)CN12 [Example 59, (8S,9aS)-8-[(5-cyclopropylpyrazin-2-yl)oxy]-2-[4-(trifluoromethoxy)benzyl]octahydro-5H-pyrrolo[1,2-a][1,4]diazepin-5-one] | 3.17 µM |

Now from value to molecule:

| IC50 | Compound |
| --- | --- |
| 6.34 µM | O=C1CCN(c2ccc(C(F)(F)F)cn2)C[C@@H]2C[C@H](Oc3cnc(C4CC4)cn3)CN12 [Example 30, (8S,9aS)-8-[(5-cyclopropylpyrazin-2-yl)oxy]-2-[5-(trifluoromethyl)pyridin-2-yl]octahydro-5H-pyrrolo[1,2-a][1,4]diazepin-5-one] |
| 3.73 µM | O=C(c1ccc(C(F)(F)F)cc1)N1CCC(=O)N2C[C@H](Oc3cnc(C4CC4)cn3)C[C@H]2C1 [Example 33, (8R,9aS)-8-[(5-cyclopropylpyrazin-2-yl)oxy]-2-[4-(trifluoromethyl)benzoyl]octahydro-5H-pyrrolo[1,2-a][1,4]diazepin-5-one] |
| 1.01 µM | O=C(c1cccc(C(F)(F)F)c1F)N1CCC(=O)N2C[C@H](Oc3cnc(C4CC4)cn3)C[C@H]2C1 [Example 34, (8R,9aS)-8-[(5-cyclopropylpyrazin-2-yl)oxy]-2-[2-fluoro-3-(trifluoromethyl)benzoyl]octahydro-5H-pyrrolo[1,2-a][1,4]diazepin-5-one] |
| 1.03 µM | O=C(c1ccc(C(F)(F)F)c(F)c1)N1CCC(=O)N2C[C@H](Oc3cnc(C4CC4)cn3)C[C@H]2C1 [Example 35, (8R,9aS)-8-[(5-cyclopropylpyrazin-2-yl)oxy]-2-[3-fluoro-4-(trifluoromethyl)benzoyl]octahydro-5H-pyrrolo[1,2-a][1,4]diazepin-5-one] |
| 1.78 µM | O=C(c1ccc(F)c(C(F)(F)F)c1)N1CCC(=O)N2C[C@H](Oc3cnc(C4CC4)cn3)C[C@H]2C1 [Example 36, (8R,9aS)-8-[(5-cyclopropylpyrazin-2-yl)oxy]-2-[4-fluoro-3-(trifluoromethyl)benzoyl]octahydro-5H-pyrrolo[1,2-a][1,4]diazepin-5-one] |
| 1.14 µM | O=C(c1cccc(OC(F)(F)F)c1)N1CCC(=O)N2C[C@H](Oc3cnc(C4CC4)cn3)C[C@H]2C1 [Example 37, (8R,9aS)-8-[(5-cyclopropylpyrazin-2-yl)oxy]-2-[3-(trifluoromethoxy)benzoyl]octahydro-5H-pyrrolo[1,2-a][1,4]diazepin-5-one] |
| 2.81 µM | O=C(c1ccc(OC(F)(F)F)cc1)N1CCC(=O)N2C[C@H](Oc3cnc(C4CC4)cn3)C[C@H]2C1 [Example 38, (8R,9aS)-8-[(5-cyclopropylpyrazin-2-yl)oxy]-2-[4-(trifluoromethoxy)benzoyl]octahydro-5H-pyrrolo[1,2-a][1,4]diazepin-5-one] |
| 2.08 µM | O=C(Cc1cccc(C(F)(F)F)c1)N1CCC(=O)N2C[C@H](Oc3cnc(C4CC4)cn3)C[C@H]2C1 [Example 39] |
| 4.7 µM | O=C(C(O)c1cccc(C(F)(F)F)c1)N1CCC(=O)N2C[C@H](Oc3cnc(C4CC4)cn3)C[C@H]2C1 (stereo partly drawn) [Example 40, (8R,9aS)-8-[(5-cyclopropylpyrazin-2-yl)oxy]-2-{hydroxy[3-(trifluoromethyl)phenyl]acetyl}octahydro-5H-pyrrolo[1,2-a][1,4]diazepin-5-one] |
| 3.45 µM | CNC(C(=O)N1CCC(=O)N2C[C@H](Oc3cnc(C4CC4)cn3)C[C@H]2C1)c1cccc(C(F)(F)F)c1 (stereo partly drawn) [Example 41, (8R,9aS)-8-[(5-cyclopropylpyrazin-2-yl)oxy]-2-{(methylamino)[3-(trifluoromethyl)phenyl]acetyl}octahydro-5H-pyrrolo[1,2-a][1,4]diazepin-5-one] |
| 5.07 µM | O=C1CCN(c2ccc(C(F)(F)F)cn2)C[C@H]2C[C@H](Oc3cnc(C4CC4)cn3)CN12 [Example 46, (8S,9aR)-8-[(5-cyclopropylpyrazin-2-yl)oxy]-2-[5-(trifluoromethyl)pyridin-2-yl]octahydro-5H-pyrrolo[1,2-a][1,4]diazepin-5-one] |
| 1.54 µM | O=C1CCN(c2cccc(C(F)(F)F)n2)C[C@@H]2C[C@@H](Oc3cnc(C4CC4)cn3)CN12 [Example 48, (8R,9aS)-8-[(5-cyclopropylpyrazin-2-yl)oxy]-2-[6-(trifluoromethyl)pyridin-2-yl]octahydro-5H-pyrrolo[1,2-a][1,4]diazepin-5-one] |
| 3.43 µM | O=C1CCN(c2ccc(C(F)(F)F)cn2)C[C@H]2C[C@@H](Oc3cnc(C4CC4)cn3)CN12 [Example 55, (8R,9aR)-8-[(5-cyclopropylpyrazin-2-yl)oxy]-2-[5-(trifluoromethyl)pyridin-2-yl]octahydro-5H-pyrrolo[1,2-a][1,4]diazepin-5-one] |
| 11.2 µM | O=C(c1cccc(C(F)(F)F)c1)N1CCC(=O)N2C[C@H](Oc3cnc(C4CC4)cn3)C[C@@H]2C1 [Example 57, (8R,9aR)-8-[(5-cyclopropylpyrazin-2-yl)oxy]-2-[3-(trifluoromethyl)benzoyl]octahydro-5H-pyrrolo[1,2-a][1,4]diazepin-5-one] |
